Measured values as given in US9273058B2 (BRISTOL-MYERS SQUIBB COMPANY, priority 2013, dated 2016).
Where two headings read alike, the source gives them in different places.

Key:
CK1δ = CK1δ (Homo sapiens, UniProt P48730); assay: CK1δ kinase assay (Caliper LabChip electrophoretic separation of fluoresceinated peptide substrate and product); assay type: biochemical; conditions: 200 pM CK1δ, 50 μM ATP, 1.5 μM peptide, 22 hours at room temperature
How it was run: (§1)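 Each reaction was incubated 22 hours at room temperature and terminated with EDTA. Read-out was microfluidic electrophoretic separation of fluoresceinated substrate and phospho-product.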

CK1ε = CK1ε (Homo sapiens, UniProt P49674); assay: CK1ε kinase assay (Caliper LabChip electrophoretic separation of fluoresceinated peptide substrate and product); assay type: biochemical; conditions: 200 pM CK1ε, 50 μM ATP, 1.5 μM peptide, 22 hours at room temperature
Sequence of CK1ε (P49674 whole entry): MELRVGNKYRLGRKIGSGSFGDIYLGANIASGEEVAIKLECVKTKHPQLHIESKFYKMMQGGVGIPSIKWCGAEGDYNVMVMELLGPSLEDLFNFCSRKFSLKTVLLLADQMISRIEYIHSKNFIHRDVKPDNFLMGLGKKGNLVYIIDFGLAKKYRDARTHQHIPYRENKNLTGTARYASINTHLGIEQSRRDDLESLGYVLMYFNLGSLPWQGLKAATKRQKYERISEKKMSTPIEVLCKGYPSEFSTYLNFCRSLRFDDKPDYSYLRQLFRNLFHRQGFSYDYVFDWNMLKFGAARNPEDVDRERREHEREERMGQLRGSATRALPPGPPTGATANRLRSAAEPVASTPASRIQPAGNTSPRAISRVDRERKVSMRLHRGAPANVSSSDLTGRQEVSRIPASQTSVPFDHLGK
How it was run: as §1

Sequence of CK1δ (P48730 whole entry): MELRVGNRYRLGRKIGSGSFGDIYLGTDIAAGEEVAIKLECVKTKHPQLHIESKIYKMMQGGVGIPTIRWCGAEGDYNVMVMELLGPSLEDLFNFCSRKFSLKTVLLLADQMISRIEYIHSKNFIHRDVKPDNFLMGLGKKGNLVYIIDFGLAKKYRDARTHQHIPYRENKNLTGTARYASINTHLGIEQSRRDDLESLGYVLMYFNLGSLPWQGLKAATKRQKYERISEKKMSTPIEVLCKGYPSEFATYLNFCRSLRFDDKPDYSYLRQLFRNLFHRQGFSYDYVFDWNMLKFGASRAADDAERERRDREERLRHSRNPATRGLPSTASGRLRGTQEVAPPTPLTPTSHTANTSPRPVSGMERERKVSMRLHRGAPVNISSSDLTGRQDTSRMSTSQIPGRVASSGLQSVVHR

IC50 (CK1δ; read-out: CK1δ IC50 range)	IC50 (CK1ε; read-out: CK1ε IC50 range)	IC50 (CK1δ; read-out: CK1δ)	IC50 (CK1ε; read-out: CK1ε)	Structure (SMILES)
0.01 to 10 nM	0.01 to 10 nM	–	–	N#Cc1ccc(O[C@H]2C[C@H](NC(=O)N3CCn4nc(-c5ccc(F)c(Cl)c5)c(C(N)=O)c4C3)C2)cc1 [Compound 266, 2-(3-Chloro-4-fluorophenyl)-N^5-((1r,3r)-3-(4-cyanophenoxyl)cyclobutyl)-6,7-dihydropyrazolo[1,5-a]pyrazine-3,5(4H)-dicarboxamide]
0.01 to 10 nM	0.01 to 10 nM	–	–	N#Cc1ccc(O[C@H]2C[C@H](NC(=O)N3CCn4nc(-c5cccc(Cl)c5)c(C(N)=O)c4C3)C2)cc1 [Compound 267, 2-(3-Chlorophenyl)-N^5-((1r,3r)-3-(4-cyanophenoxy)cyclobutyl)-6,7-dihydropyrazolo[1,5-a] pyrazine-3,5(4H)-dicarboxamide]
0.01 to 10 nM	0.01 to 10 nM	–	–	CS[C@H]1C[C@@H](NC(=O)N2CCn3nc(-c4ccc(F)c(Cl)c4)c(C(N)=O)c3C2)C1 [Compound 269, 2-(3-Chloro-4-fluorophenyl)-N^5-((1s,3s)-3-(methylthio)cyclobutyl)-6,7-dihydropyrazolo[1,5-a]pyrazine-3,5(4H)-dicarboxamide]
0.01 to 10 nM	0.01 to 10 nM	–	–	CS[C@H]1C[C@@H](NC(=O)N2CCn3nc(-c4cccc(Cl)c4)c(C(N)=O)c3C2)C1 [Compound 270, 2-(3-Chlorophenyl)-N^5-((1s,3s)-3-(methylthio)cyclobutyl)-6,7-dihydropyrazolo[1,5-a] pyrazine-3,5(4H)-dicarboxamide]
0.01 to 10 nM	0.01 to 10 nM	–	–	CS[C@H]1C[C@@H](NC(=O)N2CCn3nc(-c4ccc(Cl)c(Cl)c4)c(C(N)=O)c3C2)C1 [Compound 271, 2-(3,4-Dichlorophenyl)-N^5-((1s,3s)-3-(methylthio)cyclobutyl)-6,7-dihydropyrazolo[1,5-a] pyrazine-3,5(4H)-dicarboxamide]
0.01 to 10 nM	0.01 to 10 nM	–	–	CS(=O)(=O)[C@H]1C[C@@H](NC(=O)N2CCn3nc(-c4ccc(F)c(Cl)c4)c(C(N)=O)c3C2)C1 [Compound 272, 2-(3-Chloro-4-fluorophenyl)-N^5-((1s,3s)-3-(methylsulfonyl)cyclobutyl)-6,7-dihydropyrazolo[1,5-a]pyrazine-3,5(4H)-dicarboxamide]
0.01 to 10 nM	0.01 to 10 nM	–	–	CS(=O)(=O)[C@H]1C[C@@H](NC(=O)N2CCn3nc(-c4cccc(Cl)c4)c(C(N)=O)c3C2)C1 [Compound 273, 2-(3-Chlorophenyl)-N^5-((1s,3s)-3-(methylsulfonyl)cyclobutyl)-6,7-dihydropyrazolo[1,5-a] pyrazine-3,5(4H)-dicarboxamide]
0.01 to 10 nM	0.01 to 10 nM	–	–	CS(=O)(=O)[C@H]1C[C@@H](NC(=O)N2CCn3nc(-c4ccc(Cl)c(Cl)c4)c(C(N)=O)c3C2)C1 [Compound 274, 2-(3,4-Dichlorophenyl)-N^5-((1s,3s)-3-(methylsulfonyl)cyclobutyl)-6,7-dihydropyrazolo[1,5-a] pyrazine-3,5(4H)-dicarboxamide]
0.01 to 10 nM	0.01 to 10 nM	–	–	C[C@]1(NC(=O)N2CCn3nc(-c4ccc(F)c(Cl)c4)c(C(N)=O)c3C2)C[C@H](F)C1 [Compound 275, 2-(3-Chloro-4-fluorophenyl)-N^5-((1r,3r)-3-fluoro-1-methylcyclobutyl)-6,7-dihydropyrazolo[1,5-a]pyrazine-3,5(4H)-dicarboxamide]
0.01 to 10 nM	0.01 to 10 nM	–	–	NC(=O)c1c(-c2ccc(F)c(Cl)c2)nn2c1CN(C(=O)N[C@H]1C[C@@H](c3ccc(F)cc3)C1)CC2 [Compound 276, 2-(3-Chloro-4-fluorophenyl)-N^5-((1s,3s)-3-(4-fluorophenyl)cyclobutyl)-6,7-dihydropyrazolo[1,5-a]pyrazine-3,5(4H)-dicarboxamide]
0.01 to 10 nM	0.01 to 10 nM	–	–	NC(=O)c1c(-c2cccc(Cl)c2)nn2c1CN(C(=O)N[C@H]1C[C@@H](c3ccc(F)cc3)C1)CC2 [Compound 277, 2-(3-Chlorophenyl)-N^5-((1s,3s)-3-(4-fluorophenyl)cyclobutyl)-6,7-dihydropyrazolo[1,5-a] pyrazine-3,5(4H)-dicarboxamide]
0.01 to 10 nM	0.01 to 10 nM	–	–	NC(=O)c1c(-c2ccc(Cl)c(Cl)c2)nn2c1CN(C(=O)N[C@H]1C[C@@H](c3ccc(F)cc3)C1)CC2 [Compound 278, 2-(3,4-Dichlorophenyl)-N^5-((1s,3s)-3-(4-fluorophenyl)cyclobutyl)-6,7-dihydropyrazolo[1,5-a] pyrazine-3,5(4H)-dicarboxamide]
0.01 to 10 nM	0.01 to 10 nM	–	–	COc1ccc([C@H]2C[C@@H](NC(=O)N3CCn4nc(-c5ccc(F)c(Cl)c5)c(C(N)=O)c4C3)C2)cc1 [Compound 279, 2-(3-Chloro-4-fluorophenyl)-N^5-((1s,3s)-3-(4-methoxyphenyl)cyclobutyl)-6,7-dihydropyrazolo[1,5-a]pyrazine-3,5(4H)-dicarboxamide]
0.01 to 10 nM	0.01 to 10 nM	–	–	COc1ccc([C@H]2C[C@@H](NC(=O)N3CCn4nc(-c5ccc(Cl)c(Cl)c5)c(C(N)=O)c4C3)C2)cc1 [Compound 280, 2-(3,4-dichlorophenyl)-N^5-((1s,3s)-3-(4-methoxyphenyl)cyclobutyl)-6,7-dihydropyrazolo[1,5-a] pyrazine-3,5(4H)-dicarboxamide]
0.01 to 10 nM	0.01 to 10 nM	–	–	COc1ccc([C@H]2C[C@@H](NC(=O)N3CCn4nc(-c5cccc(Cl)c5)c(C(N)=O)c4C3)C2)cc1 [Compound 281, 2-(3-Chlorophenyl)-N^5-((1s,3s)-3-(4-methoxyphenyl)cyclobutyl)-6,7-dihydropyrazolo[1,5-a] pyrazine-3,5(4H)-dicarboxamide]
0.01 to 10 nM	0.01 to 10 nM	–	–	N#Cc1ccc([C@H]2C[C@@H](NC(=O)N3CCn4nc(-c5ccc(Cl)c(Cl)c5)c(C(N)=O)c4C3)C2)cc1 [Compound 283, N^5-((1s,3s)-3-(4-Cyanophenyl)cyclobutyl)-2-(3,4-dichlorophenyl)-6,7-dihydropyrazolo[1,5-a]pyrazine-3,5(4H)-dicarboxamide]
0.01 to 10 nM	0.01 to 10 nM	–	–	N#Cc1ccc([C@H]2C[C@@H](NC(=O)N3CCn4nc(-c5cccc(Cl)c5)c(C(N)=O)c4C3)C2)cc1 [Compound 284, 2-(3-Chlorophenyl)-N^5-((1s,3s)-3-(4-cyanophenyl)cyclobutyl)-6,7-dihydropyrazolo[1,5-a] pyrazine-3,5(4H)-dicarboxamide]
0.01 to 10 nM	0.01 to 10 nM	–	–	CC1(C)CC(NC(=O)N2CCn3nc(-c4ccc(F)c(Cl)c4)c(C(N)=O)c3C2)C1 [Compound 285, 2-(3-Chloro-4-fluorophenyl)-N^5-(3,3-dimethylcyclobutyl)-6,7-dihydropyrazolo[1,5-a]pyrazine-3,5(4H)-dicarboxamide]
0.01 to 10 nM	0.01 to 10 nM	–	–	CC1(C)CC(NC(=O)N2CCn3nc(-c4cccc(Cl)c4)c(C(N)=O)c3C2)C1 [Compound 286]
0.01 to 10 nM	0.01 to 10 nM	–	–	CC1(C)CC(NC(=O)N2CCn3nc(-c4ccc(Cl)c(Cl)c4)c(C(N)=O)c3C2)C1 [Compound 287, 2-(3,4-Dichlorophenyl)-N^5-(3,3-dimethylcyclobutyl)-6,7-dihydropyrazolo[1,5-a] pyrazine-3,5(4H)-dicarboxamide]
0.01 to 10 nM	0.01 to 10 nM	0.9 nM	1.4 nM	NC(=O)c1c(-c2ccc(F)c(Cl)c2)nn2c1CN(C(=O)NC1CC(F)(F)C1)CC2 [Compound 291, 2-(3-Chloro-4-fluorophenyl)-N^5-(3,3-difluorocyclobutyl)-6,7-dihydropyrazolo[1,5-a]pyrazine-3,5(4H)-dicarboxamide]
10 to 100 nM	10 to 100 nM	–	–	NC(=O)c1c(-c2cccc(Cl)c2)nn2c1CN(C(=O)NC1CC(F)(F)C1)CC2 [Compound 292, 2-(3-Chlorophenyl)-N^5-(3,3-difluorocyclobutyl)-6,7-dihydropyrazolo[1,5-a]pyrazine-3,5(4H)-dicarboxamide]
0.01 to 10 nM	0.01 to 10 nM	–	–	NC(=O)c1c(-c2cc(Cl)cc(Cl)c2)nn2c1CN(C(=O)NC1CC(F)(F)C1)CC2 [Compound 293, 2-(3,5-Dichlorophenyl)-N^5-(3,3-difluorocyclobutyl)-6,7-dihydropyrazolo[1,5-a] pyrazine-3,5(4H)-dicarboxamide]
0.01 to 10 nM	0.01 to 10 nM	–	–	NC(=O)c1c(-c2ccc(Cl)c(Cl)c2)nn2c1CN(C(=O)NC1CC(F)(F)C1)CC2 [Compound 294, 2-(3,4-Dichlorophenyl)-N^5-(3,3-difluorocyclobutyl)-6,7-dihydropyrazolo[1,5-a] pyrazine-3,5(4H)-dicarboxamide]
0.01 to 10 nM	0.01 to 10 nM	–	–	NC(=O)c1c(-c2cc(F)cc(Cl)c2)nn2c1CN(C(=O)NC1CC(F)(F)C1)CC2 [Compound 295, 2-(3-Chloro-5-fluorophenyl)-N^5-(3,3-difluorocyclobutyl)-6,7-dihydropyrazolo[1,5-a] pyrazine-3,5(4H)-dicarboxamide]
0.01 to 10 nM	0.01 to 10 nM	–	–	CC1(NC(=O)N2CCn3nc(-c4ccc(F)c(Cl)c4)c(C(N)=O)c3C2)CC(F)(F)C1 [Compound 296, 2-(3-Chloro-4-fluorophenyl)-N^5-(3,3-difluoro-1-methylcyclobutyl)-6,7-dihydropyrazolo[1,5-a]pyrazine-3,5(4H)-dicarboxamide]
0.01 to 10 nM	0.01 to 10 nM	0.5 nM	0.3 nM	CC1(NC(=O)N2CCn3nc(-c4ccc(Cl)c(Cl)c4)c(C(N)=O)c3C2)CC(F)(F)C1 [Compound 297, 2-(3,4-Dichlorophenyl)-N^5-(3,3-difluoro-1-methylcyclobutyl)-6,7-dihydropyrazolo[1,5-a] pyrazine-3,5(4H)-dicarboxamide]
